ChEMBL document CHEMBL1201862, “PubChem BioAssay data set” (2004)
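Five compound concentrations were applied to cells in 96-well plates for 48 hours; endpoints were derived by simple linear interpolation of the resulting dose-response curve. Here, GI50 denotes the concentration required for 50% inhibition of growth.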 Calls of active or inactive are those of the source. Cut-off read from the data, not from the text of the source: active = GI50 up to about 1.1 µM and inactive = higher.

How the values were obtained:
Experiment in all cases: NCI-60 cell line screen, 48 h
786-0 = test system: 786-0
A498 = test system: A498
ACHN = test system: ACHN
BT-549 = test system: BT-549
CCRF-CEM = test system: CCRF-CEM
COLO 205 = test system: COLO 205
DU-145 = test system: DU-145
EKVX = test system: EKVX
HCT-116 = test system: HCT-116
HL-60 = test system: HL-60
HOP-62 = test system: HOP-62
HOP-92 = test system: HOP-92
IGROV-1 = test system: IGROV-1
K562 = test system: K562
LOX IMVI = test system: LOX IMVI
MDA-MB-435 = test system: MDA-MB-435
MOLT-4 = test system: MOLT-4
Malme-3M = test system: Malme-3M
NCI-H23 = test system: NCI-H23
NCI-H522 = test system: NCI-H522
OVCAR-3 = test system: OVCAR-3
PC-3 = test system: PC-3
RPMI-8226 = test system: RPMI-8226
SK-MEL-28 = test system: SK-MEL-28
SK-MEL-2 = test system: SK-MEL-2
SK-MEL-5 = test system: SK-MEL-5
SR = test system: SR
SW-620 = test system: SW-620
T47D = test system: T47D
TK-10 = test system: TK-10
U-251 = test system: U-251
UACC-257 = test system: UACC-257
UACC-62 = test system: UACC-62
UO-31 = test system: UO-31
A549 = test system: A549
CAKI-1 = test system: CAKI-1
HCC 2998 = test system: HCC 2998
HCT-15 = test system: HCT-15
HT-29 = test system: HT-29
Hs-578T = test system: Hs-578T
KM12 = test system: KM12
M14 = test system: M14
MCF7 = test system: MCF7
MDA-MB-231 = test system: MDA-MB-231
MDA-N = test system: MDA-N
NCI-H226 = test system: NCI-H226
NCI-H460 = test system: NCI-H460
NCI/ADR-RES = test system: NCI/ADR-RES
OVCAR-4 = test system: OVCAR-4
OVCAR-5 = test system: OVCAR-5
OVCAR-8 = test system: OVCAR-8
RXF 393 = test system: RXF 393
SF-268 = test system: SF-268
SF-295 = test system: SF-295
SF-539 = test system: SF-539
SK-OV-3 = test system: SK-OV-3
SN12C = test system: SN12C
SNB-19 = test system: SNB-19
SNB-75 = test system: SNB-75

For `CCCCCCCCCCCCC/C=C/[C@H]1[C@@H](C(=O)OC)N1[S+]([O-])c1ccc(C)cc1` (stereo partly drawn), the GI50 (786-0) was > 100 µM (inactive), the GI50 (A498) was > 100 µM (inactive) and the GI50 (ACHN) was > 100 µM (inactive). For the same compound, the GI50 (BT-549) was > 100 µM (inactive), the GI50 (CCRF-CEM) was 52.5 µM (inactive) and the GI50 (COLO 205) was > 100 µM (inactive). For the same compound, the GI50 (DU-145) was > 100 µM (inactive), the GI50 (EKVX) was 88.3 µM (inactive) and the GI50 (HCT-116) was > 100 µM (inactive). The GI50 (HL-60) was 21.2 µM (inactive), the GI50 (HOP-62) was > 100 µM (inactive) and the GI50 (HOP-92) was > 100 µM (inactive). For the same compound, the GI50 (IGROV-1) was > 100 µM (inactive), the GI50 (K562) was 31.3 µM (inactive) and the GI50 (LOX IMVI) was > 100 µM (inactive). The GI50 (MDA-MB-435) was > 100 µM (inactive), the GI50 (MOLT-4) was 87.5 µM (inactive) and the GI50 (Malme-3M) was > 100 µM (inactive). The GI50 (NCI-H23) was > 100 µM (inactive), the GI50 (NCI-H522) was 71.4 µM (inactive) and the GI50 (OVCAR-3) was > 100 µM (inactive). For the same compound, the GI50 (PC-3) was > 100 µM (inactive), the GI50 (RPMI-8226) was 12.1 µM (inactive) and the GI50 (SK-MEL-28) was > 100 µM (inactive). For the same compound, the GI50 (SK-MEL-2) was > 100 µM (inactive), the GI50 (SK-MEL-5) was 35.8 µM (inactive) and the GI50 (SR) was 21.3 µM (inactive). The GI50 (SW-620) was > 100 µM (inactive), the GI50 (T47D) was 22.9 µM (inactive) and the GI50 (TK-10) was > 100 µM (inactive). For the same compound, the GI50 (U-251) was > 100 µM (inactive), the GI50 (UACC-257) was 36.3 µM (inactive) and the GI50 (UACC-62) was > 100 µM (inactive). The GI50 (UO-31) was > 100 µM (inactive).
`[N-]=[N+]=NCc1nc(N)c2c3c(sc2n1)CCCC3` was tested, and the GI50 (786-0) was 0.455 µM (active), the GI50 (A498) was 10.9 µM (inactive) and the GI50 (A549) was 3.27 µM (inactive). For the same compound, the GI50 (ACHN) was 3 µM (inactive), the GI50 (CAKI-1) was 1.56 µM (inactive) and the GI50 (COLO 205) was 3.78 µM (inactive). For the same compound, the GI50 (DU-145) was 3.13 µM (inactive), the GI50 (EKVX) was 2.1 µM (inactive) and the GI50 (HCC 2998) was 1.84 µM (inactive). For the same compound, the GI50 (HCT-116) was 2.52 µM (inactive), the GI50 (HCT-15) was 2.76 µM and the GI50 (HOP-62) was 3.72 µM (inactive). For the same compound, the GI50 (HOP-92) was 0.402 µM (active), the GI50 (HT-29) was 1.55 µM (inactive) and the GI50 (Hs-578T) was 2.72 µM (inactive). For the same compound, the GI50 (IGROV-1) was 1.2 µM (inactive), the GI50 (K562) was 4.22 µM (inactive) and the GI50 (KM12) was 0.979 µM (active). For the same compound, the GI50 (LOX IMVI) was 0.272 µM (active), the GI50 (M14) was 3.46 µM (inactive) and the GI50 (MCF7) was 2.19 µM (inactive). The GI50 (MDA-MB-231) was 6.17 µM (inactive), the GI50 (MDA-MB-435) was 4.25 µM (inactive) and the GI50 (MDA-N) was 2.51 µM (inactive). For the same compound, the GI50 (MOLT-4) was 3.29 µM (inactive), the GI50 (Malme-3M) was 1.55 µM (inactive) and the GI50 (NCI-H226) was 2.14 µM (inactive). The GI50 (NCI-H23) was 1.3 µM (inactive), the GI50 (NCI-H460) was 3.43 µM (inactive) and the GI50 (NCI/ADR-RES) was 1.99 µM (inactive). For the same compound, the GI50 (OVCAR-3) was 2.75 µM (inactive), the GI50 (OVCAR-4) was 0.631 µM (active) and the GI50 (OVCAR-5) was 3.64 µM (inactive). For the same compound, the GI50 (OVCAR-8) was 1.51 µM (inactive), the GI50 (PC-3) was 2.04 µM (inactive) and the GI50 (RPMI-8226) was 2.19 µM (inactive). The GI50 (RXF 393) was 5.4 µM (inactive), the GI50 (SF-268) was 2.32 µM (inactive) and the GI50 (SF-295) was 7.38 µM (inactive). For the same compound, the GI50 (SF-539) was 1.6 µM (inactive), the GI50 (SK-MEL-28) was 7.16 µM (inactive) and the GI50 (SK-MEL-2) was 9.38 µM (inactive). The GI50 (SK-MEL-5) was 1.36 µM (inactive), the GI50 (SK-OV-3) was 11.6 µM (inactive) and the GI50 (SN12C) was 2.74 µM (inactive). The GI50 (SNB-19) was 4.97 µM (inactive), the GI50 (SNB-75) was 7.69 µM (inactive) and the GI50 (SR) was 4.99 µM (inactive). The GI50 (SW-620) was 6.85 µM (inactive), the GI50 (T47D) was 6.85 µM (inactive) and the GI50 (TK-10) was 12.4 µM (inactive). For the same compound, the GI50 (U-251) was 2.47 µM (inactive), the GI50 (UACC-257) was 4.22 µM (inactive) and the GI50 (UACC-62) was 5.06 µM (inactive). For the same compound, the GI50 (UO-31) was 0.0532 µM (active).
With `O=c1c2cc(I)ccc2nc(-c2cccs2)n1Nc1ccccc1` the GI50 (A549) was 1.06 µM (active), the GI50 (ACHN) was 0.675 µM (active) and the GI50 (BT-549) was 3.14 µM (inactive). For the same compound, the GI50 (CAKI-1) was 11 µM (inactive), the GI50 (COLO 205) was 1.64 µM (inactive) and the GI50 (EKVX) was 13.5 µM (inactive). For the same compound, the GI50 (HCC 2998) was 16 µM (inactive), the GI50 (HCT-116) was 12.2 µM (inactive) and the GI50 (HCT-15) was 5.78 µM. For the same compound, the GI50 (HL-60) was 0.416 µM (active), the GI50 (HOP-62) was 18.8 µM (inactive) and the GI50 (HT-29) was 3.21 µM (inactive). The GI50 (IGROV-1) was 1.39 µM (inactive), the GI50 (KM12) was 4.14 µM (inactive) and the GI50 (LOX IMVI) was 0.117 µM (active). The GI50 (M14) was 1.5 µM (inactive), the GI50 (MDA-MB-435) was 0.649 µM (active) and the GI50 (MOLT-4) was 8.17 µM (inactive). The GI50 (NCI-H226) was 14.1 µM (inactive), the GI50 (NCI-H23) was 19.9 µM (inactive) and the GI50 (NCI-H460) was 0.458 µM (active). The GI50 (NCI-H522) was 0.849 µM (active), the GI50 (NCI/ADR-RES) was 22.3 µM (inactive) and the GI50 (OVCAR-3) was 1.16 µM (inactive). For the same compound, the GI50 (OVCAR-4) was 3.06 µM (inactive), the GI50 (OVCAR-5) was 30.5 µM (inactive) and the GI50 (OVCAR-8) was 2.08 µM (inactive). For the same compound, the GI50 (PC-3) was 1.61 µM (inactive), the GI50 (RPMI-8226) was 4.61 µM (inactive) and the GI50 (RXF 393) was 39.3 µM (inactive). The GI50 (SF-268) was 14.1 µM (inactive), the GI50 (SF-295) was 0.383 µM (active) and the GI50 (SF-539) was 33.5 µM (inactive). The GI50 (SK-MEL-28) was 17.9 µM (inactive), the GI50 (SK-MEL-2) was 0.33 µM (active) and the GI50 (SK-MEL-5) was 6.79 µM (inactive). For the same compound, the GI50 (SK-OV-3) was 13.9 µM (inactive), the GI50 (SN12C) was 46.8 µM (inactive) and the GI50 (SNB-19) was 23.5 µM (inactive). For the same compound, the GI50 (SR) was 12.1 µM (inactive), the GI50 (SW-620) was 2.72 µM (inactive) and the GI50 (U-251) was 10.4 µM (inactive). For the same compound, the GI50 (UACC-62) was 0.719 µM (active) and the GI50 (UO-31) was 0.889 µM (active).
